According to ChEMBL document CHEMBL1137551, “Estrogen receptor dependent inhibitors of NF-kappaB transcriptional activation-1 synthesis and biological evaluation of substituted 2-cyanopropanoic acid derivatives: pathway selective inhibitors of NF-kappaB, a potential treatment for rheumatoid arthritis” (J Med Chem, 2007):
The source made the active and inactive calls. The rule behind the calls is not given here.

Legend:
[1] = (§1) Inhibition of ER dependent NF-kappaB expression in ER expressing HAECT1 cells by luciferase reporter gene assay; type: cell-based; conditions: Homo sapiens
[2] = tested on: HAECT1; assay: Inhibition of ER dependent creatine kinase expression in ER expressing HAECT1 cells at 10 uM relative to E2; type: cell-based; conditions: Homo sapiens
[3] = (§2) Inhibition of ER dependent creatine kinase expression in ER expressing HAECT1 cells; type: cell-based; conditions: Homo sapiens
[4] = tested on: HAECT1; assay: Inhibition of ER dependent NF-kappaB expression in ER expressing HAECT1 cells at 10 uM by luciferase reporter gene assay relative to E2; type: cell-based; conditions: Homo sapiens
[5] = tested on: Mus musculus; assay: Increase in uterine wet weight in C57BL/6 mouse at 5 mg/kg/day, po after 5 days relative to control; type: functional
[6] = tested on: Mus musculus; assay: Inhibition of NFkB mediated MHC gene expression in C57BL/6 mouse at 5 mg/kg/day, po after 5 weeks relative to 17-alpha-ethinyl-17beta-estradiol; type: functional; parameters: scale not given: the % may be the effect or the level left
[7] = tested on: Mus musculus; assay: Inhibition of NFkB mediated TNFalpha gene expression in C57BL/6 mouse at 5 mg/kg/day, po after 5 weeks; type: functional; conditions: C57BL/6, 840 h
[8] = tested on: Mus musculus; assay: Inhibition of NFkB mediated VCAM gene expression in C57BL/6 mouse at 5 mg/kg/day, po after 5 weeks relative to 17-alpha-ethinyl-17beta-estradiol; type: functional; parameters: scale not given: the % may be the effect or the level left
[9] = tested on: Mus musculus; assay: Inhibition of NFkB mediated MHC gene expression in C57BL/6 mouse at 5 mg/kg/day, po after 5 weeks; type: functional; conditions: C57BL/6, 840 h
[10] = tested on: Mus musculus; assay: Inhibition of NFkB mediated RANTES gene expression in C57BL/6 mouse at 5 mg/kg/day, po after 5 weeks; type: functional; conditions: C57BL/6, 840 h
[11] = tested on: Mus musculus; assay: Inhibition of NFkB mediated VCAM gene expression in C57BL/6 mouse at 5 mg/kg/day, po after 5 weeks; type: functional; conditions: C57BL/6, 840 h
[12] = tested on: Mus musculus; assay: Inhibition of NFkB mediated RANTES gene expression in C57BL/6 mouse at 5 mg/kg/day, po after 5 weeks relative to 17-alpha-ethinyl-17beta-estradiol; type: functional; parameters: scale not given: the % may be the effect or the level left
[13] = tested on: Mus musculus; assay: Inhibition of NFkB mediated TNFalpha gene expression in C57BL/6 mouse at 5 mg/kg/day, po after 5 weeks relative to 17-alpha-ethinyl-17beta-estradiol; type: functional; parameters: scale not given: the % may be the effect or the level left
[14] = tested on: Plasma; assay: Stability in mouse plasma assessed as hydrolysis after 4 hr at 37 deg C; type: ADME, cell-free; parameters: scale not given: the % may be the effect or the level left
[15] = tested on: Plasma; assay: Stability in mouse plasma assessed as hydrolysis after 24 hr at 37 deg C; type: ADME, cell-free; parameters: scale not given: the % may be the effect or the level left
[16] = tested on: HAECT1; assay: as §2; type: cell-based; conditions: Homo sapiens
[17] = tested on: HAECT1; assay: as §1; type: cell-based; conditions: Homo sapiens
[18] = tested on: HAECT1; assay: Inhibition of ER dependent NF-kappaB expression in ER expressing HAECT1 cells at 1 uM by luciferase reporter gene assay; type: cell-based; conditions: Homo sapiens
[19] = Inhibition of ER dependent IL6 expression in ER expressing HAECT1 cells; type: cell-based; conditions: Homo sapiens
[20] = tested on: HAECT1; assay: Inhibition of ER dependent IL6 expression in ER expressing HAECT1 cells at 10 uM relative to E2; type: cell-based; conditions: Homo sapiens
[21] = molecular target: Estrogen receptor beta (Homo sapiens, UniProt Q92731); assay: Displacement of [3H]E2 from human ERbeta ligand binding domain
Sequence of Estrogen receptor beta (Q92731 whole entry, the tested form may be a part): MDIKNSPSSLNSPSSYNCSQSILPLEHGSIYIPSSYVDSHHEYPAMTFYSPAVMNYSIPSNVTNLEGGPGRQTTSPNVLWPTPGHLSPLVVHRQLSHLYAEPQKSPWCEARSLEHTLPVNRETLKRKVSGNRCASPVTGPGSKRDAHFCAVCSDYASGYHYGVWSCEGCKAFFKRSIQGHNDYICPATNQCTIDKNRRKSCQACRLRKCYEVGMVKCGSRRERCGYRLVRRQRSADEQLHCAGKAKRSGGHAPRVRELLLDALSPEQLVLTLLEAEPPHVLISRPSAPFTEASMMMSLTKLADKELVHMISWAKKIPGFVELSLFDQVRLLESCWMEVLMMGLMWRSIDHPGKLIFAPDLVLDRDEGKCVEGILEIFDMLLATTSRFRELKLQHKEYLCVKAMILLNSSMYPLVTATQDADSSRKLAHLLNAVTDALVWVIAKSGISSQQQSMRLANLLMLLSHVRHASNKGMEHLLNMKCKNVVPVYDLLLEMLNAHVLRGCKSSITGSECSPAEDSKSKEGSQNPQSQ

[22] = molecular target: T1, Estrogen receptor (Homo sapiens, UniProt P03372); assay: Displacement of [3H]E2 from human ERalpha ligand binding domain
T1 sequence (P03372 whole entry): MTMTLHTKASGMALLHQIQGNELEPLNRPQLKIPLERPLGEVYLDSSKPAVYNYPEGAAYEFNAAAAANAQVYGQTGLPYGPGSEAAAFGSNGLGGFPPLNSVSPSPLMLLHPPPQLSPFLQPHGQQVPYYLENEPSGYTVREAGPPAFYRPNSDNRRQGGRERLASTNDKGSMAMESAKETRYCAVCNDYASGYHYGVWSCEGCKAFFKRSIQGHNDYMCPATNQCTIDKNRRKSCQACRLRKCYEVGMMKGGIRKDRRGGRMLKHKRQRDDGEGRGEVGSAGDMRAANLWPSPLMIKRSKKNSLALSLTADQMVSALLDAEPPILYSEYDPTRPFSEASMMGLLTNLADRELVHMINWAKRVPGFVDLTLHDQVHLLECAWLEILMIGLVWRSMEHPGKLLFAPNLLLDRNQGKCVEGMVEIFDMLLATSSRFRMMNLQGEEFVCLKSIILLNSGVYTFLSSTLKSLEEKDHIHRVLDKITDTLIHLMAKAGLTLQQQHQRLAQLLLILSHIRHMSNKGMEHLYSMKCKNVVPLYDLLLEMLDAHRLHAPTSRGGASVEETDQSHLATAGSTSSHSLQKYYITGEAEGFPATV

[23] = tested on: Rattus norvegicus; assay: Inhibition of 17-alpha-ethinyl-17beta-estradiol induced uterine wet weight in Sprague-Dawley rat at 2 mg/kg/day; type: functional, organism-based
[24] = tested on: Rattus norvegicus; assay: Stimulation of uterine wet weight in Sprague-Dawley rat at 2 mg/kg/day; type: functional, organism-based
[25] = tested on: Rattus norvegicus; assay: Inhibition of adjuvant-induced arthritis in Lewis rat assessed as improvement in synovial scoring at 0.3 mg/kg/day, po; type: functional; parameters: scale not given: the % may be the effect or the level left

| SMILES | IC50 [1] | EC50 [3] | Efficacy [2] | Efficacy [4] | Activity [16] | other results |
| --- | --- | --- | --- | --- | --- | --- |
| COc1ccccc1[C@H](c1cccc2ccccc12)[C@@](C)(C#N)C(=O)N1CCN(c2cccc(Cl)c2C)CC1 | 0.023 µM | 0.084 µM | 41% | 99% |  | Fold change [5]: 1.1; Activity [6]: 41%; inhibition in vivo at 5 mg/kg/day [7]: 58%; Activity [8]: 47%; inhibition in vivo at 5 mg/kg/day [9]: 20%; inhibition in vivo at 5 mg/kg/day [10]: 35%; inhibition in vivo at 5 mg/kg/day [11]: 24%; Activity [12]: 45%; Activity [13]: 82% |
| COc1ccccc1C(c1cccc2ccccc12)C(C)(C#N)C(=O)OC(C)(C)C (configuration not stated) | 0.119 µM | 0.038 µM | 24% | 94% |  | Stability [14]: 32%; Stability [15]: 0% |
| CCOC(=O)C(C)(C#N)C(c1cccc2ccccc12)c1cccc2ccccc12 (configuration not stated) | 0.206 µM |  |  | 96% | inactive |  |
| N#CC(C(=O)O)C(c1cccc2ccccc12)c1cccc2ccccc12 (configuration not stated) |  |  |  |  | inactive | Activity [17]: inactive |
| CCOC(=O)C(C#N)C(c1ccc(OC)cc1OC)c1cccc2ccccc12 (configuration not stated) |  |  |  |  | inactive | Activity [17]: inactive |
| CCOC(=O)C(C)(C#N)C(c1ccccc1OC)c1cccc2ccccc12 (configuration not stated) | 0.105 µM | 0.098 µM | 33% | 110% |  |  |
| C#C[C@]1(O)CC[C@H]2[C@@H]3CCc4cc(O)ccc4[C@H]3CC[C@@]21C [ETHINYL ESTRADIOL] |  |  |  |  |  | Fold change [5]: 4; inhibition in vivo at 5 mg/kg/day [7]: 60%; inhibition in vivo at 5 mg/kg/day [9]: 64%; inhibition in vivo at 5 mg/kg/day [10]: 58%; inhibition in vivo at 5 mg/kg/day [11]: 58% |
| CCOC(=O)C(C#N)C(c1cccc2ccccc12)c1ccnc2ccccc12 (configuration not stated) |  |  |  | 4% |  | inhibition [18]: 3% |
| COc1ccccc1[C@H](c1cccc2ccccc12)[C@@](C)(C#N)C(=O)N1CCCCC1 | 0.125 µM | 0.259 µM | 37% | 92% |  |  |
| CCOC(=O)C(C)(C#N)C(c1ccccc1[N+](=O)[O-])c1cccc2ccccc12 (configuration not stated) | 0.268 µM |  |  | 112% | inactive |  |
| CCOC(=O)C(C#N)C(c1ccccc1F)c1cccc2ccccc12 (configuration not stated) |  |  |  | 32% |  | inhibition [18]: 19% |
| CCOC(=O)C(C#N)C(c1cccc(OC)c1)c1cccc2ccccc12 (configuration not stated) |  |  |  |  | inactive | Activity [17]: inactive |
| COc1ccccc1[C@H](c1cccc2ccccc12)[C@@](C)(C#N)C(=O)N1CCC(c2cccc(C(F)(F)F)c2)CC1 | 0.122 µM |  |  | 94% | inactive | IC50 [21]: 1.5 µM; IC50 [22]: 2.43 µM; Fold change [5]: 1; Activity [6]: 86%; inhibition in vivo at 5 mg/kg/day [7]: 59%; Activity [23]: inactive; Activity [24]: inactive; Activity [25]: 50%; Activity [8]: 94%; inhibition in vivo at 5 mg/kg/day [9]: 42%; inhibition in vivo at 5 mg/kg/day [10]: 50%; inhibition in vivo at 5 mg/kg/day [11]: 48%; Activity [12]: 65%; Activity [13]: 83% |

Now from value to molecule, other results behind:

| IC50 [1] | EC50 [3] | SMILES | Efficacy [2] | Efficacy [4] | Activity [16] | other results |
| --- | --- | --- | --- | --- | --- | --- |
| 0.11 µM | 0.24 µM | CCOC(=O)C(C#N)C(c1ccccc1C(F)(F)F)c1cccc2ccccc12 (configuration not stated) | 24% | 106% |  |  |
| 0.118 µM | 0.197 µM | CCOC(=O)C(C#N)C(c1ccccc1SC)c1cccc2ccccc12 (configuration not stated) | 24% | 102% |  |  |
| 0.389 µM |  | CCOC(=O)C(C#N)C(c1ccc2ccccc2c1)c1cccc2ccccc12 (configuration not stated) |  | 76% | inactive |  |
| 0.139 µM | 0.233 µM | CCOC(=O)C(C#N)C(c1ccccc1OC)c1cccc2ccccc12 (configuration not stated) | 32% | 90% |  |  |
| 0.327 µM |  | CCOC(=O)C(C)(C#N)C(c1ccccc1SC)c1cccc2ccccc12 (configuration not stated) |  | 65% | inactive |  |
| 0.55 µM |  | CCOC(=O)C(C#N)C(c1cccc2ccccc12)c1cccc2ccccc12 (configuration not stated) |  | 96% | inactive | IC50 [19]: 0.185 µM; Efficacy [20]: 91% |
| 1.9 µM |  | N#CC(C(N)=O)C(c1cccc2ccccc12)c1cccc2ccccc12 (configuration not stated) |  | 55% | inactive |  |
| 0.792 µM |  | CCOC(=O)C(C#N)C(c1ccccc1)c1cccc2ccccc12 (configuration not stated) |  | 96% | inactive |  |
| 0.55 µM |  | CCOC(=O)C(C#N)C(c1ccc(C)cc1)c1cccc2ccccc12 (configuration not stated) |  | 64% | inactive |  |
